Values after ≈ are worked out from the molar mass of the structure shown.
Key:
[1] = system: Mycobacterium smegmatis (ATCC607); assay: In-vitro anti-bacterial activity against strain M. Smegmatis ATCC607; format: cell-based; conditions: 90% inhibitory concentration for bacterial growth, Alamar Blue fluorescence; for IC90 MSM 607: 48 hours; for IC90: Mycolicibacterium smegmatis, ATCC607, 48 h, read-out: IC90 MSM 607
Outline: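 IC90 (μg/ml) derived from Alamar Blue fluorescence (530/590 nm) after 48 h growth at 37 °C under 5% CO2. About 250 CFU per well in Mueller-Hinton broth faced five-fold serial compound dilutions in BSA-containing wells.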

[2] = system: Staphylococcus aureus (ATCC29213); assay: In-vitro anti-bacterial activity, microtitre plate assay, IC90 determination (non-mycobacterial strains); format: cell-based; conditions: 90% inhibitory concentration for bacterial growth, resazurin fluorescence; for IC90 STA B29213: 24 hours; for IC90: Staphylococcus aureus, ATCC29213, 24 h, read-out: IC90 STA B29213
Outline: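 Growth inhibition measured fluorometrically with resazurin (530/590 nm) after overnight 37 °C incubation under normal atmosphere. Bacteria added at roughly 100 TCID50 per well in Mueller-Hinton broth to five-fold compound dilution series; IC90 reported in μg/ml.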

Compound | IC90 MSM 607 [1] [µg/mL] | IC90 STA B29213 [2] [µg/mL] | IC90 [1] [µg/mL] | IC90 [2] [µg/mL]
COc1nc2ccc(F)cc2cc1C(c1ccc(SC)cc1)C1(O)CCNC(c2ccc(F)cc2C)C1 (stereo not drawn) [Compound 407] | 1.17 (≈ 2.25 µM) | 1.65 (≈ 3.17 µM) | – | –
COc1ccc2nc(OC)c(C(c3ccccc3)C3(O)CCNC(Cc4ccccc4)C3)cc2c1 (stereo not drawn) [Compound 408] | – | – | > 19.2 | > 19.2
COc1nc2ccccc2cc1C(c1ccccc1)C1(O)CCNC(c2ccccc2)C1 (stereo not drawn) [Compound 413] | – | – | 18.2 (≈ 43 µM) | 18.2 (≈ 43 µM)
COc1nc2ccccc2cc1C(c1ccccc1)C1(O)CCNC(c2ccccc2)C1 (stereo not drawn) [Compound 414] | 18.39 (≈ 43.3 µM) | 18.39 (≈ 43.3 µM) | – | –
COc1nc2ccccc2cc1C(c1ccccc1)C1(O)CCNC(c2ccccc2)C1 (stereo not drawn) [Compound 415] | >15.47 | 15.47 (≈ 36.4 µM) | – | –
COc1nc2ccccc2cc1C(c1ccccc1)C1(O)CCNC(c2ccc(F)cc2C)C1 (stereo not drawn) [Compound 416] | 9.25 (≈ 20.3 µM) | 9.25 (≈ 20.3 µM) | – | –
COc1nc2ccc(F)cc2cc1C(c1ccc(S(C)(=O)=O)cc1)C1(O)CCNC(c2ccc(F)cc2C)C1 (stereo not drawn) [Compound 418] | 17.67 (≈ 32 µM) | >17.6721 | – | –
COc1nc2ccc(Cl)cc2cc1C(c1ccc(Cl)cc1)C1(O)CCNCC1C (stereo not drawn) [Compound 420] | 5.43 (≈ 12.6 µM) | – | – | 5.43 (≈ 12.6 µM)
COc1nc2ccc(Cl)cc2cc1C(c1ccc(Cl)cc1)C1(O)CCNCC1C (stereo not drawn) [Compound 421] | 5.43 (≈ 12.6 µM) | 5.43 (≈ 12.6 µM) | – | –
COc1nc2ccc(Cl)cc2cc1C(c1ccc(Cl)cc1)C1(O)CCNCC1C (stereo not drawn) [Compound 422] | 8.61 (≈ 20 µM) | 7.67 (≈ 17.8 µM) | – | –
COc1nc2ccc(Br)cc2cc1C(c1cccnc1)C1(O)CCNC(Cc2ccccc2)C1 (stereo not drawn) [Compound 427] | – | – | > 16.1 | > 16.1
COc1nc2ccc(Br)cc2cc1C(c1cccnc1)C1(O)CCNC(Cc2ccccc2)C1 (stereo not drawn) [Compound 428] | 10.66 (≈ 20.6 µM) | 15.06 (≈ 29 µM) | – | –
COc1nc2ccc(Br)cc2cc1C(n1cccn1)C1(O)CCNC(Cc2ccccc2)C1 (stereo not drawn) [Compound 429] | – | – | 3.87 (≈ 7.63 µM) | 7.72 (≈ 15.2 µM)
O=c1[nH]c2ccc(Cl)cc2cc1C(c1ccc(Cl)cc1)C1(O)CCNCC1F (stereo not drawn) [Compound 457] | – | – | 5.76 (≈ 13.7 µM) | 11.5 (≈ 27.3 µM)
O=c1[nH]c2ccc(Cl)cc2cc1C(c1ccc(Cl)cc1)C1(O)CCNCC1F (stereo not drawn) [Compound 458] | 11.50 (≈ 27.3 µM) | 11.50 (≈ 27.3 µM) | – | –
COc1nc2ccc(Cl)cc2cc1C(c1ccc(Cl)cc1)C1(O)CCNC(Cc2cccnc2)C1 (stereo not drawn) [Compound 468] | 3.21 (≈ 6.31 µM) | 3.21 (≈ 6.31 µM) | – | –
COc1nc2ccc(Cl)cc2cc1C(c1ccc(Cl)cc1)C1(O)CCNC(CNc2cccnc2)C1 (stereo not drawn) [Compound 469] | – | – | 4.16 (≈ 7.95 µM) | 8.3 (≈ 15.9 µM)
COc1nc2ccc(Cl)cc2cc1C(c1ccc(Cl)cc1)C1(O)CCNC(CNc2cccnc2)C1 (stereo not drawn) [Compound 470] | 3.08 (≈ 5.88 µM) | 5.23 (≈ 9.99 µM) | – | –

Results, then the compound that gave them:

IC90 MSM 607 [1] [µg/mL] | IC90 STA B29213 [2] [µg/mL] | IC90 [1] [µg/mL] | IC90 [2] [µg/mL] | Compound
6.36 (≈ 12.9 µM) | 2.01 (≈ 4.07 µM) | – | – | COc1nc2ccc(Cl)cc2cc1C(c1ccc(Cl)cc1)C1(O)CCNCC1c1ccccc1 (stereo not drawn) [Compound 409]
7.73 (≈ 15.7 µM) | 12.25 (≈ 24.8 µM) | – | – | COc1nc2ccc(Cl)cc2cc1C(c1ccc(Cl)cc1)C1(O)CCNCC1c1ccccc1 (stereo not drawn) [Compound 410]
6.50 (≈ 13.2 µM) | 4.10 (≈ 8.31 µM) | – | – | COc1nc2ccc(Cl)cc2cc1C(c1ccc(Cl)cc1)C1(O)CCNCC1c1ccccc1 (stereo not drawn) [Compound 411]
2.02 (≈ 4.09 µM) | 4.02 (≈ 8.15 µM) | – | – | COc1nc2ccc(Cl)cc2cc1C(c1ccc(Cl)cc1)C1(O)CCNCC1c1ccccc1 (stereo not drawn) [Compound 412]
3.39 (≈ 6.24 µM) | 3.39 (≈ 6.24 µM) | – | – | COc1nc2ccc(Cl)cc2cc1C(c1ccc(Cl)cc1)C1(O)CCNC(c2ccc3ccccc3c2)C1 (stereo not drawn) [Compound 430]
7.66 (≈ 14.1 µM) | 8.60 (≈ 15.8 µM) | – | – | COc1nc2ccc(Cl)cc2cc1C(c1ccc(Cl)cc1)C1(O)CCNC(c2ccc3ccccc3c2)C1 (stereo not drawn) [Compound 431]
5.24 (≈ 9.64 µM) | 7.41 (≈ 13.6 µM) | – | – | COc1nc2ccc(Cl)cc2cc1C(c1ccc(Cl)cc1)C1(O)CCNC(c2ccc3ccccc3c2)C1 (stereo not drawn) [Compound 432]
3.60 (≈ 6.62 µM) | 11.37 (≈ 20.9 µM) | – | – | COc1nc2ccc(Cl)cc2cc1C(c1ccc(Cl)cc1)C1(O)CCNC(c2ccc3ccccc3c2)C1 (stereo not drawn) [Compound 442]
– | – | 2.91 (≈ 5.89 µM) | 4.94 (≈ 9.99 µM) | COc1nc2ccc(Cl)cc2cc1C(c1ccc(Cl)cc1)C1(O)CCNC(c2cccnc2)C1 (stereo not drawn) [Compound 471]

From patent publication US9617244B2, “Antibacterial quinoline derivatives” (JANSSEN PHARMACEUTICA NV, priority 2012, dated 2017)
